In PubChem BioAssay AID330 (DTP/NCI, 2004):
Values joined by “and” are separate entries in the source; they are usually repeats but may differ in a detail not shown here. Equal values may be shown once. Toxic doses and inconclusive results are not listed. The calls were made as follows: active = survival T/C of 150% or more; inactive = T/C below 125% in these data.

Test system: P388 leukemia ip, CD2F1 mice, survival T/C
Experiment: NCI In Vivo Anticancer Drug Screen. Data for tumor model P388 Leukemia (intraperitoneal) in CD2F1 (CDF1) mice
Conditions: endpoint: median survival time, higher = longer survival
Method in brief: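 Mice carrying the transplanted tumor received test compound or vehicle. Survival was recorded in each group, and the value is the treated-group measurement divided by that of the vehicle-treated control group.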

[1] = dose: 100.0 mg/kg/injection, schedule: Q01DX001 (ip), vehicle: saline with Tween-80
[2] = dose: 100.0 mg/kg/injection, schedule: Q04DX002 (ip), vehicle: saline with Tween-80
[3] = dose: 200.0 mg/kg/injection, schedule: Q01DX001 (ip), vehicle: saline with Tween-80
[4] = dose: 400.0 mg/kg/injection, schedule: Q01DX001 (ip), vehicle: saline with Tween-80
[5] = dose: 50.0 mg/kg/injection, schedule: Q01DX009 (ip), vehicle: Klucel (hydroxypropylcellulose) (HPC)
[6] = dose: 100.0 mg/kg/injection, schedule: Q01DX009 (ip), vehicle: Klucel (hydroxypropylcellulose) (HPC)
[7] = dose: 50.0 mg/kg/injection, schedule: Q01DX005 (ip), vehicle: saline with Tween-80
[8] = dose: 100.0 mg/kg/injection, schedule: Q01DX005 (ip), vehicle: saline with Tween-80
[9] = dose: 60.0 mg/kg/injection, schedule: Q01DX005 (ip), vehicle: saline with Tween-80
[10] = dose: 120.0 mg/kg/injection, schedule: Q01DX005 (ip), vehicle: saline with Tween-80
[11] = dose: 240.0 mg/kg/injection, schedule: Q01DX005 (ip), vehicle: saline with Tween-80

Measured: T/C

CCOC(=O)C(Cc1ccc(N(CCCl)CCCl)cc1)NP1(=O)NCCCO1 (stereo not given)
active: dose: 14.0 mg/kg/injection, schedule: Q04DX003 (ip), vehicle: saline with Tween-80 186 % of control | dose: 22.0 mg/kg/injection, schedule: Q04DX003 (ip), vehicle: saline with Tween-80 172 % of control | dose: 33.0 mg/kg/injection, schedule: Q04DX003 (ip), vehicle: saline with Tween-80 218 % of control | dose: 50.0 mg/kg/injection, schedule: Q04DX003 (ip), vehicle: saline with Tween-80 240 % of control

CC(=O)OC1(C)CC(C)C(=O)C(C(O)CC2CC(=O)NC(=O)C2)C1 (stereo not given)
inactive: dose: 130.0 micrograms/kg/injection, schedule: Q01DX009 (ip), vehicle: saline 111 % of control | dose: 1300.0 micrograms/kg/injection, schedule: Q04DX003 (ip), vehicle: saline 120 % of control | dose: 2160.0 micrograms/kg/injection, schedule: Q04DX003 (ip), vehicle: saline 113 % of control | dose: 3600.0 micrograms/kg/injection, schedule: Q04DX003 (ip), vehicle: saline 113 % of control and 119 % of control | dose: 6000.0 micrograms/kg/injection, schedule: Q04DX003 (ip), vehicle: saline 118 % of control

CCCCCc1c(-c2n[nH]c(C)c2CCCCC)n[nH]c1C
inactive: dose: 60.0 mg/kg/injection, schedule: Q01DX005 (ip), vehicle: Klucel (hydroxypropylcellulose) (HPC) 92 % of control | dose: 120.0 mg/kg/injection, schedule: Q01DX005 (ip), vehicle: Klucel (hydroxypropylcellulose) (HPC) 96 % of control | dose: 240.0 mg/kg/injection, schedule: Q01DX005 (ip), vehicle: Klucel (hydroxypropylcellulose) (HPC) 100 % of control

OCC(O)C(O)C(O)c1nnc2c3ccccc3c(-c3ccccc3)nn12 (stereo not given)
inactive: [1] 89 % of control | [2] 91 % of control | [3] 90 % of control | dose: 200.0 mg/kg/injection, schedule: Q04DX002 (ip), vehicle: saline with Tween-80 90 % of control | [4] 88 % of control | dose: 400.0 mg/kg/injection, schedule: Q04DX002 (ip), vehicle: saline with Tween-80 93 % of control

COC1OCC(NC(=O)c2ccccc2)C(OS(C)(=O)=O)C1OS(C)(=O)=O (stereo not given)
inactive: dose: 12.5 mg/kg/injection, schedule: Q01DX009 (ip), vehicle: other 97 % of control | dose: 25.0 mg/kg/injection, schedule: Q01DX009 (ip), vehicle: other 87 % of control | dose: 50.0 mg/kg/injection, schedule: Q01DX009 (ip), vehicle: other 106 % of control | dose: 100.0 mg/kg/injection, schedule: Q01DX009 (ip), vehicle: other 95 % of control | dose: 200.0 mg/kg/injection, schedule: Q01DX009 (ip), vehicle: other 88 % of control

CC#CC#CC#C/C=C\CCC(=O)CC
inactive: dose: 12.5 mg/kg/injection, schedule: Q01DX009 (ip), vehicle: Klucel (hydroxypropylcellulose) (HPC) 95 % of control | dose: 25.0 mg/kg/injection, schedule: Q01DX009 (ip), vehicle: Klucel (hydroxypropylcellulose) (HPC) 95 % of control | [5] 95 % of control | [6] 100 % of control

Cc1cccc(C)c1NC(=O)CCC(=O)C(C)C(=O)c1ccc(O)cc1 (stereo not given)
inactive: [1] 100 % of control | [3] 100 % of control | [4] 97 % of control

CCNC(=O)/N=c1/sc([N+](=O)[O-])cn1CC(=O)N(C)C(=O)OCC
inactive: dose: 25.0 mg/kg/injection, schedule: Q01DX001 (ip), vehicle: saline 100 % of control | dose: 50.0 mg/kg/injection, schedule: Q01DX001 (ip), vehicle: saline 98 % of control | dose: 100.0 mg/kg/injection, schedule: Q01DX001 (ip), vehicle: saline 100 % of control

O=c1oc2ccccc2c(O)c1C(c1ccc2c(c1)OCO2)N1CCOCC1 (stereo not given)
inactive: dose: 50.0 mg/kg/injection, schedule: Q01DX005 (ip), vehicle: saline 113 % of control | dose: 100.0 mg/kg/injection, schedule: Q01DX005 (ip), vehicle: saline 110 % of control | dose: 200.0 mg/kg/injection, schedule: Q01DX005 (ip), vehicle: saline 103 % of control

O=C(c1ccccc1)C1C(=O)c2cc3c(cc2C1=O)C(=O)C(C(=O)c1ccccc1)C3=O
inactive: dose: 25.0 mg/kg/injection, schedule: Q04DX002 (ip), vehicle: saline with Tween-80 99 % of control | dose: 50.0 mg/kg/injection, schedule: Q04DX002 (ip), vehicle: saline with Tween-80 95 % of control | [2] 95 % of control

CCOc1ccc(C2=C(O)/C(=C(\C(=O)Nc3nccs3)c3ccc(OCC)cc3)OC2=O)cc1
inactive: dose: 12.5 mg/kg/injection, schedule: Q01DX005 (ip), vehicle: Klucel (hydroxypropylcellulose) (HPC) 109 % of control | dose: 25.0 mg/kg/injection, schedule: Q01DX005 (ip), vehicle: Klucel (hydroxypropylcellulose) (HPC) 104 % of control | dose: 50.0 mg/kg/injection, schedule: Q01DX005 (ip), vehicle: Klucel (hydroxypropylcellulose) (HPC) 100 % of control and 104 % of control

CC1=NOC(=O)/C1=C/c1ccc(Cl)c(Cl)c1
inactive: [7] 112 % of control | [8] 114 % of control

O=C(/C=C/c1cccc([N+](=O)[O-])c1)Nc1cccc(S(=O)(=O)F)c1
inactive: [9] 102 % of control | [10] 93 % of control | [11] 91 % of control

C=CCC(C(C)=O)C(C)=NCCN=C(C)C(CC=C)C(C)=O.[Cu] (stereo not given)
inactive: dose: 6.25 mg/kg/injection, schedule: Q01DX005 (ip), vehicle: saline with Tween-80 110 % of control | dose: 12.5 mg/kg/injection, schedule: Q01DX005 (ip), vehicle: saline with Tween-80 96 % of control

N=C(N)Sc1cc(O)c(O)c2ccccc12
inactive: dose: 6.25 mg/kg/injection, schedule: Q01DX005 (ip), vehicle: saline 104 % of control | dose: 12.5 mg/kg/injection, schedule: Q01DX005 (ip), vehicle: saline 109 % of control

NC(C(=O)O)C(F)C(=O)O (stereo not given)
inactive: dose: 10.0 mg/kg/injection, schedule: Q01DX009 (ip), vehicle: saline 109 % of control | dose: 20.0 mg/kg/injection, schedule: Q01DX009 (ip), vehicle: saline 106 % of control | dose: 40.0 mg/kg/injection, schedule: Q01DX009 (ip), vehicle: saline 100 % of control

CC12CC(C(=O)O)C3(O)CC(C)(C1)CC(C)(C2)C3 (stereo not given) (tested in a mixture with another compound)
inactive: [5] 109 % of control | [6] 118 % of control

CC1(C)OC2(C)CCC1C1C2N1C(=O)Nc1cccc(Cl)c1 (stereo not given)
inactive: [7] 101 % of control | [8] 92 % of control | dose: 200.0 mg/kg/injection, schedule: Q01DX005 (ip), vehicle: saline with Tween-80 89 % of control

COc1ccc(C(=O)Cc2nc3nnc(N)n3nc2CC(=O)c2ccc(OC)cc2)cc1
inactive: dose: 60.0 mg/kg/injection, schedule: Q01DX005 (ip), vehicle: saline 96 % of control | dose: 120.0 mg/kg/injection, schedule: Q01DX005 (ip), vehicle: saline 100 % of control | dose: 240.0 mg/kg/injection, schedule: Q01DX005 (ip), vehicle: saline 100 % of control

O=C(/N=C1\N=Nc2nc(C(C(=O)c3cccs3)c3nc4n(c3O)/C(=N/C(=O)Nc3ccc(Cl)cc3)N=N4)c(O)n21)Nc1ccc(Cl)cc1 (stereo not given)
inactive: [9] 95 % of control | [10] 95 % of control | [11] 100 % of control

CC(=O)NS(=O)(=O)c1ccc(N=NC2C(=O)N(C(=O)c3ccc(Cl)cc3)N=C2C)cc1 (stereo not given)
inactive: dose: 1.5 mg/kg/injection, schedule: Q01DX001 (ip), vehicle: saline with Tween-80 100 % of control | dose: 3.0 mg/kg/injection, schedule: Q01DX001 (ip), vehicle: saline with Tween-80 104 % of control | dose: 6.0 mg/kg/injection, schedule: Q01DX001 (ip), vehicle: saline with Tween-80 107 % of control | dose: 12.0 mg/kg/injection, schedule: Q01DX001 (ip), vehicle: saline with Tween-80 100 % of control | dose: 12.5 mg/kg/injection, schedule: Q01DX001 (ip), vehicle: saline with Tween-80 94 % of control
